Experimental data published in US20150250826A1, “ISOLATION AND CHARACTERIZATION OF MUSCLE REGENERATING CELLS” (Joslin Diabetes Center, Inc., priority 2012, published 2015).

Experiments:
Format in all cases: cell-based
[1] = system: mouse Kras; p16p19null rhabdomyosarcoma cell line; assay: In vitro growth assay (MTT) in mouse Kras; p16p19null rhabdomyosarcoma cell line; conditions: 48 hours
Source text: (§1) FIG. 8: In vitro screening of candidate targets. Sarcoma cells were exposed to increasing concentrations of Torin (10, 50, 250 nMol), Rapamycin (10, 50, 100 nMol), RL0061425 (10, 50, 100, 500, 1000 nMol), SB525334 (1, 10, 50, 100, 500 nMol), SD208 (10, 50, 100, 500, 1000 nMol), and Ethanol and DMSO (as a control).
(§2) To begin to evaluate the effects of candidate target genes in sarcoma cells, we have established in vitro assays in which the proliferation of sarcoma cell lines exposed to selected chemical compounds is measured by MTT (3-(4,5-Dimethylthiazol-2-yl)-2,5-diphenyltretrazolium bromide) assay at defined time points. All experiments are carried out in low-passage cell lines established from modeled Kras rhabdomyosarcomas of satellite cell origin. For comparison, we also studied the effects of these compounds in the human embryonal rhabdomyosarcoma cell line RD. In these studies, we focused first on a small set of readily available chemical compounds (obtained from D. Guertin and L. Rubin at the University of Massachusetts and the Harvard Stem Cell Institute, respectively), whose targets include the TGFβ and mammalian target of rapamycin (mTOR) signaling pathways. As discussed above, the TGFβ pathway was implicated in sarcoma pathogenesis by our prior bioinformatics analyses. mTOR was tested as well because Ras pathway activation has been reported to promote mTOR signaling (Carriere, A., Romeo, Y., Acosta-Jaquez, H. A., Moreau, J., Bonneil, E., Thibault, P. Fingar, D. C., Roux, P. P., ERK1/2 Phosphorylate Raptor to Promote Ras-dependent Activation of mTOR Complex 1 (mTORC1). J Biol Chem 286 (1), 567 (2011)), and many genes on our list appear to interact with this signaling pathway (data not shown). Finally, gene ontology analyses of the 146 sarcoma-associated genes discussed above identified 61 genes that function in cell growth and proliferation (i.e., key cellular activities often regulated by mTOR).
(§3) Cell lines from the modeled sarcomas were exposed to graded concentrations of mTOR inhibitors (Rapamycin, Torin) or TGF inhibitors (RL0061425, SB525334, SD208). […]

[2] = system: mouse Kras; p16p19null sarcoma line; assay: In vitro growth assay (MTT) in mouse Kras; p16p19null sarcoma line; conditions: 96 hours
Source text: as §1, §2, §3

[3] = system: human rhabdomyosarcoma cell line RD; assay: In vitro growth assay (MTT) in human rhabdomyosarcoma cell line RD; conditions: 96 hours
Source text: as §1
To begin to evaluate the effects of candidate target genes in sarcoma cells, we have established in vitro assays in which the proliferation of sarcoma cell lines exposed to selected chemical compounds is measured by MTT (3-(4,5-Dimethylthiazol-2-yl)-2,5-diphenyltretrazolium bromide) assay at defined time points. All experiments are carried out in low-passage cell lines established from modeled Kras rhabdomyosarcomas of satellite cell origin. For comparison, we also studied the effects of these compounds in the human embryonal rhabdomyosarcoma cell line RD. In these studies, we focused first on a small set of readily available chemical compounds (obtained from D. Guertin and L. Rubin at the University of Massachusetts and the Harvard Stem Cell Institute, respectively), whose targets include the TGFβ and mammalian target of rapamycin (mTOR) signaling pathways. […]

[4] = tested at 10, 50, 100, 500, 1000 nMol

With `Cc1cccc(-c2[nH]c(C(C)(C)C)nc2-c2ccc3nccnc3c2)n1` [SB525334] the “cell growth (fold-increase in MTT-uptake)” value ([1]; 1, 10, 50, 100, 500 nMol) was “no major effect”, the “cell growth (fold-increase in MTT-uptake)” value ([2]; 1, 10, 50, 100, 500 nMol) was “no major effect” and the “cell growth (fold-increase in MTT-uptake)” value ([3]; 1, 10, 50, 100, 500 nMol) was “no major effect”.

In the case of `Fc1ccc(Cl)cc1-c1nc(Nc2ccncc2)c2nccnc2n1` [SD208], the “concentration at which growth was inhibited (MTT-uptake)” value [1, 4] was ≥ 500 nmol and the “concentration at which growth was inhibited (MTT-uptake)” value [2, 4] was ≥ 500 nmol.

In the case of Torin, the “cell growth (fold-increase in MTT-uptake)” value ([1]; 250 nMol) was “reduced the growth”, the “cell growth (fold-increase in MTT-uptake)” value ([2]; 250 nMol) was “reduced the growth” and the “cell growth (fold-increase in MTT-uptake)” value ([3]; 250 nMol) was “reduced the growth”.
